The text below walks through data of EP4786483A1, “AURISTATIN DERIVATIVE AND ANTIBODY-DRUG CONJUGATE THEREOF” (priority 2023, dated 2025).

Like-named read-outs stand apart in the source and are kept apart here.

What all share (experiment): Cytotoxicity test for compounds (CellTiter-Glo cell proliferation inhibition)
Assay type in all cases: cell-based
(ATP-based viability assays read luminescence as a measure of living cells.)

Assay [1] has as its system Human gastric cancer cells NCI-N87. How it is done:
(§1) Biological Test Example 1: Cytotoxicity Test for Compounds
(§2) • 96-well clear flat-bottom white plate (Corning, #3610) • RPMI1640 culture medium (Gibco, #A10491-01) • Fetal Bovine Serum (Sigma-Aldrich, #F8687-500ML) • CellTiter-Glo® Luminescent Cell Viability Assay (Promega, # G7572/G7571)
(§3) Human gastric cancer cells NCI-N87 (ATCC, Cat. No.: CRL-5822), human breast cancer cells MDA-MB-468 (Cell Bank of the Committee for Type Culture Collection of the Chinese Academy of Sciences, Cat. No.: TCHu136), and human breast cancer cells KPL-4 (Nanjing Cobioer Biosciences Co., Ltd., Cat. No.: CBP60379) were washed with PBS and digested with 0.25% Trypsin-EDTA trypsin for about 3-10 min. The digestion was terminated with a complete cell culture medium. The cells were centrifuged at 1000 rpm for 5 min, and the supernatant was discarded. The cells were resuspended in a complete cell culture medium. The cell number was counted using a cell counter, and the cells were adjusted to the desired density. 90.0 µL of the cell suspension was added to each well at 3000 cells/well. The cell plate was incubated in a cell incubator at 37°C with 5% CO2 overnight.
(§4) In the experiment, a DMSO control group and test sample groups were set. The cell plate was removed from the incubator to observe cell adherence. After the cells adhered, 10.00 µL of the sample (starting from a final concentration of 10 µM, 5-fold dilution, 9 concentrations) was added to each well. After the mixture was gently shaken uniformly, the plate was incubated in the incubator.
(§5) After 3 days of incubation, 100.0 µL/well of CellTiter-Glo™ (Promega, Cat. No.: G7572/G7571) working solution was added. The plate was shaken on a thermostatic shaker to lyse the cells. After 10 min, the plate was read on a microplate reader.
(§6) Data analysis: GraphPad Prism 8.0 software was used to plot a graph with the Log value of the sample concentration as the abscissa and the Inhibition% as the ordinate. The data were analyzed by Nonlinear regression (curve fit) to obtain the IC50 value of each test sample. Table 1. Inhibition activity of compounds of the present disclosure on cell proliferation

Assay [2] relates to human breast cancer cells KPL-4. How it is done: as §1, §2, §3, §4, §5, §6
Assay [3] deals with human breast cancer cells MDA-MB-468. How it is done:
as §1, §2, §3, §4, §5, §6

Setting [4] is: 3 days of incubation, CellTiter-Glo, read-out: NCI-87/IC50.
The mark [5] stands for this setting: 3 days of incubation, CellTiter-Glo, read-out: KPL-4/IC50.
[6] abbreviates: Homo sapiens, NCI-N87, 72 h, 3 days of incubation, CellTiter-Glo, read-out: NCI-87/IC50.
[7] abbreviates: Homo sapiens, KPL4, 72 h, 3 days of incubation, CellTiter-Glo, read-out: KPL-4/IC50.
The mark [8] stands for this setting: Homo sapiens, MDA-MB-468, 72 h, 3 days of incubation, CellTiter-Glo, read-out: MDA-MD-468/IC50.
[9] abbreviates: Homo sapiens, NCI-N87, 72 h, read-out: NCI-87/IC50 (nM).
Where [10] appears, read: Homo sapiens, KPL4, 72 h, read-out: KPL-4/IC50 (nM).
The mark [11] stands for this setting: Homo sapiens, MDA-MB-468, 72 h, read-out: MDA-MD-468/IC50 (nM).

Consider `CC[C@H](C)[C@@H]([C@@H](CC(=O)N1CCC[C@H]1[C@H](OC)[C@@H](C)C(=O)OC(/C=C/C(=O)OC)Cc1cccc(N)c1)OC)N(C)C(=O)[C@@H](NC(=O)[C@H](C(C)C)N(C)C)C(C)C` (single isomer, unassigned) [Example 29], for which the IC50 is 3.73 nM in assay [1] (setting [4]); less than 0.0256 nM in assay [2] (setting [5]); 3.17 nM in assay [3] (3 days of incubation, CellTiter-Glo, read-out: MDA-MD-468/IC50).

As to `CC[C@H](C)[C@@H]([C@@H](CC(=O)N1CCC[C@H]1[C@H](OC)[C@@H](C)C(=O)N1CCS(=O)(=O)[C@@H](c2cccc(N)c2)C1)OC)N(C)C(=O)[C@@H](NC(=O)[C@H](C(C)C)N(C)C)C(C)C` (single isomer, unassigned) [Example 61-P2], the values for the IC50 in assay [1] (setting [6]), in assay [2] (setting [7]) and in assay [3] (setting [8]) were 56.3 nM, 24.3 nM and 13.3 nM, respectively.

Consider `CC[C@H](C)[C@@H]([C@@H](CC(=O)N1CCC[C@H]1[C@H](OC)[C@@H](C)C(=O)O[C@@H](C)Cc1cccc(N)c1)OC)N(C)C(=O)[C@@H](NC(=O)[C@H](C(C)C)N(C)C)C(C)C` [Example 12, (S)-1-(3-aminophenyl)propan-2-yl (2R,3R)-3-((S)-1-((3R,4S,5S)-4-((S)-2-((S)-2-(dimethylamino)-3-methylbutanamido)-N,3-dimethylbutanamido)-3-methoxy-5-methylheptanoyl)pyrrolidin-2-yl)-3-methoxy-2-methylpropanoate], for which the results for the IC50 in assay [1] (setting [6]), in assay [2] (setting [7]) and in assay [3] (setting [8]) were 4.05 nM, 1.42 nM and 11.8 nM, respectively.

Regarding `CC[C@H](C)[C@@H]([C@@H](CC(=O)N1CCC[C@H]1[C@H](OC)[C@@H](C)C(=O)OC(/C=C/C(=O)OC)Cc1cccc(N)c1)OC)N(C)C(=O)[C@@H](NC(=O)[C@H](C(C)C)N(C)C)C(C)C` (single isomer, unassigned) [Example 28], the IC50 in assay [1] (setting [6]) is 3.33 nM; in assay [2] (setting [7]) it was less than 0.0256 nM; in assay [3] (setting [8]) it was 3.25 nM.

`C=C(C)C(Cc1cccc(N)c1)OC(=O)[C@H](C)[C@@H](OC)[C@@H]1CCCN1C(=O)C[C@@H](OC)[C@H]([C@@H](C)CC)N(C)C(=O)[C@@H](NC(=O)[C@H](C(C)C)N(C)C)C(C)C` (stereo partly shown) [Example 31]: the values for the IC50 in assay [1] (setting [9]), in assay [2] (setting [10]) and in assay [3] (setting [11]) were less than 0.0256 nM, less than 0.0256 nM and 0.11 nM, respectively.

As for `CC[C@H](C)[C@@H]([C@@H](CC(=O)N1CCC[C@H]1[C@H](OC)[C@@H](C)C(=O)N1CCSC(c2cccc(N)c2)C1)OC)N(C)C(=O)[C@@H](NC(=O)[C@H](C(C)C)N(C)C)C(C)C` (single isomer, unassigned) [Example 60-P2], the results for the IC50 in assay [1] (setting [6]), in assay [2] (setting [7]) and in assay [3] (setting [8]) were 0.71 nM, 0.6 nM and 1.01 nM, respectively.

Consider `CCC(C)C(C(CC(=O)N1CCCC1C(OC)C(C)C(=O)OC(Cc1cccc(N)c1)C(=O)NC)OC)N(C)C(=O)C(NC(=O)C(C(C)C)N(C)C)C(C)C` (stereo not shown) [Example 30], for which the values for the IC50 in assay [1] (setting [6]), in assay [2] (setting [7]) and in assay [3] (setting [8]) were 5.62 nM, 2.42 nM and 0.72 nM, respectively.

On to `CC[C@H](C)[C@@H]([C@@H](CC(=O)N1CCC[C@H]1[C@H](OC)[C@@H](C)C(=O)N(O)CCc1cccc(N)c1)OC)N(C)C(=O)[C@@H](NC(=O)[C@H](C(C)C)N(C)C)C(C)C` [Example 8, (S)-N-((3R,4S,SS)-1-((S)-2-((1R,2R)-3-((3-aminophenethyl)(hydroxy)amino)-1-methoxy-2-methyl-3-oxopropyl)pyrrolidin-1-yl)-3-methoxy-5-methyl-1-oxoheptan-4-yl)-2-((S)-2-(dimethylamino)-3-methylbutanamido)-N,3-dimethylbutanamide], for which the IC50 worked out at 0.66 nM in assay [1] (setting [6]), 0.14 nM in assay [2] (setting [7]) and 0.56 nM in assay [3] (setting [8]).

In the case of `CC[C@H](C)[C@@H]([C@@H](CC(=O)N1CCC[C@H]1[C@H](OC)[C@@H](C)C(=O)O[C@H](C)Cc1cccc(N)c1)OC)N(C)C(=O)[C@@H](NC(=O)[C@H](C(C)C)N(C)C)C(C)C` [Example 11, (R)-1-(3-aminophenyl)propan-2-yl (2R,3R)-3-((S)-1-((3R,4S,5S)-4-((S)-2-((S)-2-(dimethylamino)-3-methylbutanamido)-N,3-dimethylbutanamido)-3-methoxy-5-methylheptanoyl)pyrrolidin-2-yl)-3-methoxy-2-methylpropanoate], the results for the IC50 in assay [1] (setting [6]), in assay [2] (setting [7]) and in assay [3] (setting [8]) were 0.15 nM, 0.1 nM and 3 nM, respectively.

With `CC[C@H](C)[C@@H]([C@@H](CC(=O)N1CCC[C@H]1[C@H](OC)[C@@H](C)C(=O)N1CCS[C@H](c2cccc(N)c2)C1)OC)N(C)C(=O)[C@@H](NC(=O)[C@H](C(C)C)N(C)C)C(C)C` (single isomer, unassigned) [Example 60-P1], the IC50 in assay [1] (setting [6]) amounted to 9.63 nM; in assay [2] (setting [7]) it was 5.81 nM; in assay [3] (setting [8]), 8.02 nM.

For the compound `CC[C@H](C)[C@@H]([C@@H](CC(=O)N1CCC[C@H]1[C@H](OC)[C@@H](C)C(=O)N1CCO[C@@H](c2cccc(N)c2)C1)OC)N(C)C(=O)[C@@H](NC(=O)[C@H](C(C)C)N(C)C)C(C)C` [Example 51, (S)-N-((3R,4S,SS)-1-((S)-2-((1R,2R)-3-((S)-2-(3-aminophenyl)morpholino)-1-methoxy-2-methyl-3-oxopropyl)pyrrolidin-1-yl)-3-methoxy-5-methyl-1-oxoheptan-4-yl)-2-((S)-2-(dimethylamino)-3-methylbutanamido)-N,3-dimethylbutanamide], the IC50 in assay [1] (setting [4]) came to 16.1 nM; in assay [2] (setting [5]) it was 6.03 nM.

As to `C=CCN(C(=O)[C@H](C)[C@@H](OC)[C@@H]1CCCN1C(=O)C[C@@H](OC)[C@H]([C@@H](C)CC)N(C)C(=O)[C@@H](NC(=O)[C@H](C(C)C)N(C)C)C(C)C)[C@H](CC#N)Cc1cccc(N)c1` [Example 10, (S)-N-((3R,4S,5S)-1-((S)-2-((1R,2R)-3-(allyl((S)-1-(3-aminophenyl)-3-cyanopropan-2-yl)amino)-1-methoxy-2-methyl-3-oxopropyl)pyrrolidin-1-yl)-3-methoxy-5-methyl-1-oxoheptan-4-yl)-2-((S)-2-(dimethylamino)-3-methylbutanamido)-N,3-dimethylbutanamide], the IC50 was determined as 3.35 nM in assay [1] (setting [6]), 1.25 nM in assay [2] (setting [7]) and 1.97 nM in assay [3] (setting [8]).

Consider `CC[C@H](C)[C@@H]([C@@H](CC(=O)N1CCC[C@H]1[C@H](OC)[C@@H](C)C(=O)O[C@H](CF)Cc1cccc(N)c1)OC)N(C)C(=O)[C@@H](NC(=O)[C@H](C(C)C)N(C)C)C(C)C` [Example 24], for which the IC50 in assay [1] (setting [9]), in assay [2] (setting [10]) and in assay [3] (setting [11]) was less than 0.0256 nM throughout.

For `C=CC(Cc1cccc(N)c1)OC(=O)[C@H](C)[C@@H](OC)[C@@H]1CCCN1C(=O)C[C@@H](OC)[C@H]([C@@H](C)CC)N(C)C(=O)[C@@H](NC(=O)[C@H](C(C)C)N(C)C)C(C)C` (stereo partly shown) [Example 19], the IC50 in assay [1] (setting [9]), in assay [2] (setting [10]) and in assay [3] (setting [11]) was less than 0.0256 nM in each case.

On to `CC[C@H](C)[C@@H]([C@@H](CC(=O)N1CCC[C@H]1[C@H](OC)[C@@H](C)C(=O)O[C@H](CO)Cc1cccc(N)c1)OC)N(C)C(=O)[C@@H](NC(=O)[C@H](C(C)C)N(C)C)C(C)C` [Example 14], for which the IC50 in assay [1] (setting [9]) is 5.13 nM; in assay [2] (setting [10]) it was 1.13 nM; in assay [3] (setting [11]), 3.82 nM.

With `CC[C@H](C)[C@@H]([C@@H](CC(=O)N1CCC[C@H]1[C@H](OC)[C@@H](C)C(=O)O[C@@H](Cc1cccc(N)c1)C(F)F)OC)N(C)C(=O)[C@@H](NC(=O)[C@H](C(C)C)N(C)C)C(C)C` [Example 25], the IC50 in assay [1] (setting [9]), in assay [2] (setting [10]) and in assay [3] (setting [11]) was less than 0.0256 nM in each case.

On to `CC[C@H](C)[C@@H]([C@@H](CC(=O)N1CCC[C@H]1[C@H](OC)[C@@H](C)C(=O)N1CCO[C@H](c2cccc(N)c2)C1)OC)N(C)C(=O)[C@@H](NC(=O)[C@H](C(C)C)N(C)C)C(C)C` [Example 48, (S)-N-((3R,4S,55)-1-((S)-2-((1R,2R)-3-((R)-2-(3-aminophenyl)morpholino)-1-methoxy-2-methyl-3-oxopropyl)pyrrolidin-1-yl)-3-methoxy-5-methyl-1-oxoheptan-4-yl)-2-((S)-2-(dimethylamino)-3-methylbutanamido)-N,3-dimethylbutanamide], for which the IC50 was found to be 4.73 nM in assay [1] (setting [4]) and 2.06 nM in assay [2] (setting [5]).
